For this assay, the target named is T1, monomeric Aβ1-42 (Homo sapiens, UniProt P05067).
T1 construct: Aβ1-42 (#60-0-80, American Peptide, Sunnyvale, Calif. USA); purchased American Peptide, Sunnyvale, Calif; USA #60-0-80
Put plainly: Surface plasmon resonance (SPR) binding of compounds to immobilized Aβ1-42 monomers (Biacore X100). The note with it: compounds 0.1 nM to 300 nM, 25° C., steady-state analysis, repeated tests. As to the method: Aβ monomers were covalently coupled to one flow cell of CM7 sensor chips (GE Lifesciences, Uppsala, Sweden) via primary amines using the Amine Coupling Kit (GE Lifesciences, Uppsala, Sweden). As a control, ethanolamine was immobilized on the reference channel. […] One RU represents about 1 pg/mm^2 of the analytes on the surface matrix of the sensor chip.
Concentrations were tested in duplicate.
The RUs elicited by the compound injected into the ethanolamine control flow cell was set as reference response and subtracted from the RUs elicited by the same compound injected to the Aβ saturated flow cell. The relationships between each RU obtained at the steady state of binding (plateau of the binding curve) and each concentration of the compound were plotted.
After the analyte injection was stopped, HBS-EP buffer was flowed over the chip for 180 s to allow the bound analyte to dissociate from the immobilized Aβ and the dissociation curves were obtained.
The dissociation equilibrium constant KD of the analyte to the immobilized Aβ was determined from the steady-state levels estimating the maximum RU Rmax and calculating the KD as the concentration of the compound that elicited one-half of the Rmax.
On the technique in general: In SPR one partner is held on a chip, and binding of the other changes the refractive index at the surface.

The term IC50 denotes the concentration that inhibits the measured activity by half.

T1 sequence (P05067 672-713 limits assumed): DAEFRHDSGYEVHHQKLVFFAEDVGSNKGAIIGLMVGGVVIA

With `CNC(=O)C(C)(C)/C=C/[C@H](N)Cc1c[nH]c2ccccc12` [Example 4, (E)-(R)-5-Amino-6-(1H-indol-3-yl)-2,2-dimethyl-hex-3-enoic-acid-methylamide], the IC50 stood at 6.8 nM. In the case of `CC(=O)N[C@@H](/C=C/C(C)(C)C(=O)O)Cc1c[nH]c2ccccc12` [Example 5, (E)-(R)-5-Acetylamino-6-(1H-indol-3-yl)-2,2-dimethyl-hex-3-enoic-acid] it was 42.1 nM. In the case of `CC(C)(/C=C/[C@H](N)Cc1c[nH]c2ccccc12)C(N)=O` [Example 3, (E)-(R)-5-Amino-6-(1H-indol-3-yl)-2,2-dimethyl-hex-3-enoic acid amide] it was 0.5 nM.

For the origin of these results see US9309196B2, “Indole derivatives and process for their preparation” (Ramot at Tel-Aviv University Ltd., priority 2010, dated 2016).
